Results from PubChem BioAssay AID1963870 (Molecular Pharmacology Branch, DTP, NCI, 2024).

System: 292921-168-R-J2-PDC KRAS tumor spheroid viability
Assay: Anticancer human tumor 292921-168-R-J2-PDC patient-derived pancreatic carcinoma cell line growth inhibition [KRAS2]
Settings: spheroids with HUVEC and MSC; for IC50: curve of first compound; for viability, T/C: stronger effect = lower value
From the text: Multicellular complex tumor spheroid response to RAS pathway inhibitors in combination with a targeted agents in patient-derived cell lines with oncogenic KRAS variants from multiple cancer types
A high-throughput screen of multi-cell type tumor spheroids was designed to identify active combinations of targeted small molecules and KRAS pathway inhibitors. Complex spheroids include a stromal component modeled by human endothelial cells (HUVEC) and fibroblasts modeled by human mesenchymal stem cells (MSCs). The concentration ranges selected for each drug and investigational agent were based upon clinically achievable concentrations if the clinical Cmax of the agent was known.
Compounds. The drugs and investigational agents: BI-3406 (NSC825286), BAY-293 (NSC824723), batoprotafib (TNO155; NSC825523), sotorasib (AMG 510; NSC818433), MRTX1257 (NSC819558), elimusertib (BAY 1895344; NSC800525), molibresib (GSK525762; NSC774829), temuterkib (LY3214996; NSC803410), venetoclax (NSC766270), alisertib (NSC759677), olaparib (NSC753686), talazoparib (NSC767125), erdafitinib (NSC781556), ipatasertib (NSC767898), cabozantinib (NSC761068), nintedanib (NSC756659), abemaciclib (NSC768073), docetaxel (NSC628503), trametinib (NSC758246), and sapanisertib (NSC764658) were obtained from the National Cancer Institute (NCI) Developmental Therapeutics Program Chemical Repository. The FDA-approved anticancer drug set is available from the Developmental Therapeutics Program. […] The stock solutions were prepared in dimethyl sulfoxide (DMSO, Sigma-Aldrich, St. Louis, MO, cat. D2650) at 800-fold the tested concentration and stored at -70 degrees C prior to their use. All drugs and investigational agents were tested over a range starting from a high concentration at or near the clinical Cmax and decreasing in half-log increments. If the clinical Cmax for an agent had not been determined, the highest concentration tested was 10 microM.
Cell Culture. All cells were maintained in an incubator at 37 degrees C and 5% CO2 with 95% humidity. The PDC lines were cultured according to standard operating procedures established by the NCI PDMR (https://pdmr.cancer.gov/sops/default.htm). Briefly, all PDCs were thawed and cultured in Matrigel-coated flasks prepared with a working solution of 1X Ham's F-12 nutrient mix, without supplementation (Invitrogen, Waltham, MA, cat. 11765054), 100 U/mL penicillin-streptomycin (Invitrogen, cat. 15140122), and 2.5% Matrigel (Corning Inc., Corning, NY, cat. 354248) for the first three passages. All PDCs were cultured in complete DMEM/F-12 media containing advanced DMEM/F-12 (Invitrogen, cat. 12634028), 4.9% defined fetal bovine serum, heat inactivated (HyClone Laboratories Inc., Logan, UT, cat. SH30070.03HI), 389 ng/mL hydrocortisone (Sigma-Aldrich, cat. H4001), 9.7 ng/mL human EGF recombinant protein (Invitrogen, cat. PHG0313), 23.4 microg/mL adenine (Sigma-Aldrich, cat. A2786), 97.3 U/mL penicillin-streptomycin (Invitrogen, cat. 15140122), 1.9 mM L-glutamine (Invitrogen, cat. 25030081), and 9.7 microM Y-27632 dihydrochloride (Tocris Bioscience, Bristol, United Kingdom, cat. 1254). The PDCs were cultured in complete DMEM/F12 media without 9.7 microM Y-27632 dihydrochloride for at least two passages prior to the screen. The established cell line HOP-62 was cultured in RPMI 1640 medium, HEPES (Invitrogen, cat. 22400105) with 10% defined fetal bovine serum (HyClone Laboratories Inc., cat. SH30070.03) and 2 mM L-glutamine (Invitrogen, cat. 25030081). The pooled donor HUVEC were cultured in endothelial cell growth medium 2 (PromoCell, Heidelberg, Germany, cat. C-22011) and the hMSC were cultured in mesenchymal stem cell growth medium 2 (PromoCell, cat. C-28009). For all experiments, HUVEC and hMSC were used at passages </=5, while the malignant cell lines were used at passages </=15. […]
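Also: drug exposure lasted seven days after spheroids formed for three days.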
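For viability, T/C in this document: percent of DMSO vehicle control viability which is 100%.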

With COC(=O)c1ccc2c(C(=Nc3ccc(N(C)C(=O)CN4CCN(C)CC4)cc3)c3ccccc3)c(O)[nH]c2c1 + C=CC(=O)N1CCN(c2nc(OCC3CCCN3C)nc3c2CCN(c2cccc4cccc(C)c24)C3)CC1CC#N the IC50 (second compound 0.0316 µM) was under 31.6 nM, the IC50 (second compound 0.1 µM) was under 31.6 nM and the IC50 (second compound 0.316 µM) was under 31.6 nM. For the same molecule, the IC50 (second compound 1 µM) was under 31.6 nM, the IC50 (second compound 3.16 µM) was under 31.6 nM and the viability, T/C (second compound 0.0316 µM, first compound 0.0316 µM) was 33%. For the same molecule, the viability, T/C (second compound 0.0316 µM, first compound 0.1 µM) was 26.1%, the viability, T/C (second compound 0.0316 µM, first compound 0.316 µM) was 16.8% and the viability, T/C (second compound 0.0316 µM, first compound 1 µM) was 10.2%. For the same molecule, the viability, T/C (second compound 0.0316 µM, first compound 3.16 µM) was 3.16%, the viability, T/C (second compound 0.0316 µM, first compound 10 µM) was 0.05% and the viability, T/C (second compound 0.1 µM, first compound 0.0316 µM) was 26.5%. It also gave a viability, T/C (second compound 0.1 µM, first compound 0.1 µM) of 22.9%, a viability, T/C (second compound 0.1 µM, first compound 0.316 µM) of 15.5% and a viability, T/C (second compound 0.1 µM, first compound 1 µM) of 9.38%. It also gave a viability, T/C (second compound 0.1 µM, first compound 3.16 µM) of 5.32%, a viability, T/C (second compound 0.1 µM, first compound 10 µM) of 0.11% and a viability, T/C (second compound 0.316 µM, first compound 0.0316 µM) of 23.6%. It also gave a viability, T/C (second compound 0.316 µM, first compound 0.1 µM) of 19.6%, a viability, T/C (second compound 0.316 µM, first compound 0.316 µM) of 13.4% and a viability, T/C (second compound 0.316 µM, first compound 1 µM) of 7.92%. It also gave a viability, T/C (second compound 0.316 µM, first compound 3.16 µM) of 2.44%, a viability, T/C (second compound 0.316 µM, first compound 10 µM) of 0.07% and a viability, T/C (second compound 1 µM, first compound 0.0316 µM) of 16.7%. The viability, T/C (second compound 1 µM, first compound 0.1 µM) was 16.4%, the viability, T/C (second compound 1 µM, first compound 0.316 µM) was 9.48% and the viability, T/C (second compound 1 µM, first compound 1 µM) was 6.16%. For the same molecule, the viability, T/C (second compound 1 µM, first compound 3.16 µM) was 0.43%, the viability, T/C (second compound 1 µM, first compound 10 µM) was 0.03% and the viability, T/C (second compound 3.16 µM, first compound 0.0316 µM) was 0.16%. For the same molecule, the viability, T/C (second compound 3.16 µM, first compound 0.1 µM) was 0.08%, the viability, T/C (second compound 3.16 µM, first compound 0.316 µM) was 0.07% and the viability, T/C (second compound 3.16 µM, first compound 1 µM) was 0.05%. For the same molecule, the viability, T/C (second compound 3.16 µM, first compound 3.16 µM) was 0.04% and the viability, T/C (second compound 3.16 µM, first compound 10 µM) was 0.05%.

With COC(=O)c1ccc2c(C(=Nc3ccc(N(C)C(=O)CN4CCN(C)CC4)cc3)c3ccccc3)c(O)[nH]c2c1 the viability, T/C (compound 3.16 µM) was 6.78% [middle of 5 runs] and the viability, T/C (compound 10 µM) was 0.34% [middle of 5 runs].
